US20230118497A1, “PYRAZOLE-CONTAINING POLYCYCLIC DERIVATIVE INHIBITOR, PREPARATION METHOD THEREFOR AND APPLICATION THEREOF” (Shanghai Hansoh Biomedical Co., Ltd., priority 2019, published 2023)
Read-outs that look alike come from different tables or passages of the source.

Assays:
Type in all cases: in vitro ADME
[1] = Plasma protein binding rate (mouse); conditions: 37° C. 6 h
Protocol: Test Example 6. Assay of Plasma Protein Binding Rate
The objective of the experiment is to determine the plasma protein binding of the compounds of the Examples in plasma.
The compound of the Example was formulated into 1 mM solution A with DMSO;
The solution A was added to the plasma solution to obtain 5 μM solution B;
1) 200 μL of solution B was added to the inside of the membrane;
2) […] of PBS was added to the outside of the membrane;
3) Incubation in a water bath at 37° C. for 6 h;
4) The sample was diluted and analyzed by mass spectrometry.

[2] = biological target: T1, CYP450 enzyme isoform 3A4 (Homo sapiens, UniProt P08684); test: CYP enzyme single-point inhibition assay, 3A4; conditions: human liver microsome, single-point method
T1 construct: single-point method using human liver microsome incubation system; from tissue; host or cells: human liver microsomes
Protocol: (§1) Test Example 7. CYP Enzyme Single-Point Inhibition Assay
(§2) The inhibition of the compounds on CYP450 enzyme isoformwas rapidly predicted by single-point method using human liver microsome incubation system.
(§3) 2.5 mM NADPH: 4.165 mg of NADPH (reduced nicotinamide adenine dinucleotide phosphate) was weighed, followed by addition of 100 mM phosphate buffer to 2 mL. 0.25 mg/mL microsome solution: 4 mL of 100 mM phosphate buffer was added to 50 μL of 20 mg/mL microsome solution and mixed well.
(§4) The test compound of the Example was weighed, diluted to 10 mM with DMSO and then to 100 μM with 100 mM phosphate buffer.
(§5) 1. 40 μL of liver microsome, 10 μL of substrate and 10 μL of the test compound were added to a 96-well plate and pre-incubated for 3 min.
(§6) 2. 40 μL of NADPH was added.
(§7) 3. 300 μL of acetonitrile stop solution containing internal standard was added at 20 min.
(§8) 4. The sample was centrifuged and injected.

[3] = biological target: T2, CYP450 enzyme isoform 2C9 (Homo sapiens, UniProt P11712); test: CYP enzyme single-point inhibition assay, 2C9; conditions: human liver microsome, single-point method
T2 construct: single-point method using human liver microsome incubation system; from tissue; host or cells: human liver microsomes
Protocol: as §1, §2, §3, §4, §5, §6, §7, §8

T1 sequence (P08684 whole entry, canonical isoform): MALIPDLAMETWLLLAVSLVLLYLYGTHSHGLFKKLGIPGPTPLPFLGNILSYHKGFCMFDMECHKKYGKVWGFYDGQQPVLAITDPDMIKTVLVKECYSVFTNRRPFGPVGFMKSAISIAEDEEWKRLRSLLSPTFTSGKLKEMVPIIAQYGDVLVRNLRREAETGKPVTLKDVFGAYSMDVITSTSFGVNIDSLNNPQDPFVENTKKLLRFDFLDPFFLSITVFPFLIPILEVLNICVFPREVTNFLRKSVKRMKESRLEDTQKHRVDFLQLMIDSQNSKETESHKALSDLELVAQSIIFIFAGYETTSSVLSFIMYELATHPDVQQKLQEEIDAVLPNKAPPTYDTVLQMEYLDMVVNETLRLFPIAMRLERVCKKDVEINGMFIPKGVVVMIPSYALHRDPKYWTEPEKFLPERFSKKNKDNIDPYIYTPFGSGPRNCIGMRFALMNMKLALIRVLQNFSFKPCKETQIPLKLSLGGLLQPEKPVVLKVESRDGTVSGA
T2 sequence (P11712 whole entry, canonical isoform): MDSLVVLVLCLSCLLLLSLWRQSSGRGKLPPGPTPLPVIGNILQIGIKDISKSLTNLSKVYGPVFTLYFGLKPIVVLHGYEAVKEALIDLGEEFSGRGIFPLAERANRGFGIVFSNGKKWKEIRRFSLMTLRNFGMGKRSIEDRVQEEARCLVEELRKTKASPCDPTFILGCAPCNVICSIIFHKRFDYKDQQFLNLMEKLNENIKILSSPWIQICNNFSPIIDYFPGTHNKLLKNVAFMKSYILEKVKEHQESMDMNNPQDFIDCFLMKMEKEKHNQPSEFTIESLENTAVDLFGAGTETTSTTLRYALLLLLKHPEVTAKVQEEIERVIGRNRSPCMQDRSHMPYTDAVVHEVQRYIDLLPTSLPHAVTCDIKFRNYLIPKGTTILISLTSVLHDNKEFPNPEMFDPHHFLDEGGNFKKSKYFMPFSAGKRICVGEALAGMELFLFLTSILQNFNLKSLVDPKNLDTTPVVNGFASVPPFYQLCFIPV

For N#Cc1cnn2c3nc(C(F)(F)F)ccc3c(=O)n(CC(=O)Nc3ccc(F)cn3)c12 [Example 80, 2-(3-Cyano-5-oxo-8-(trifluoromethyl)pyrazolo[1,5-a]pyrido[3,2-e]pyrimidin-4(5H)-yl)-N-(5-fluoropyridin-2-yl)acetamide], the fraction unbound at 6 h, 5 μM [1] was 0.256.
O=C(Cn1c(=O)c2ccc(C(F)(F)F)nc2n2nccc12)Nc1ccc(F)cn1 [Example 78, N-(5-Fluoropyridin-2-yl)-2-(5-oxo-8-(trifluoromethyl)pyrazolo[1,5-a]pyrido[3,2-e]pyrimidin-4(5H)-yl)acetamide] showed an IC50 ([2]; 3A4-M, read-out: 3A4-M IC50) of over 100 µM, an IC50 ([2]; 3A4-T, read-out: 3A4-T IC50) of over 100 µM and an IC50 [3] of over 100 µM. The fraction unbound at 6 h, 5 μM [1] was 0.084.
Work on CCc1cc2n(CC(=O)Nc3ccc(F)cn3)c(=O)c3ccc(C(F)(F)F)nc3n2n1 [Example 34, 2-(2-Ethyl-5-oxo-8-(trifluoromethyl)pyrazolo[1,5-a]pyrido[3,2-e]pyrimidin-4(5H)-yl)-N-(5-fluoropyridin-2-yl)acetamide] yielded an IC50 ([2]; 3A4-M, read-out: 3A4-M IC50) of over 100 µM, an IC50 ([2]; 3A4-T, read-out: 3A4-T IC50) of over 100 µM and an IC50 [3] of over 100 µM. The fraction unbound at 6 h, 5 μM [1] was 0.043.
N#Cc1cc2n(CC(=O)Nc3ccc(F)cn3)c(=O)c3ccc(C(F)(F)F)nc3n2n1 [Example 68, 2-(2-Cyano-5-oxo-8-(trifluoromethyl)pyrazolo[1,5-a]pyrido[3,2-e]pyrimidin-4(5H)-yl)-N-(5-fluoropyridin-2-yl)acetamide] showed an IC50 ([2]; 3A4-M, read-out: 3A4-M IC50) of over 100 µM, an IC50 ([2]; 3A4-T, read-out: 3A4-T IC50) of over 100 µM and an IC50 [3] of over 100 µM. It also gave a fraction unbound at 6 h, 5 μM [1] of 0.162.
O=C(Cn1c(=O)c2ccc(C(F)(F)F)nc2n2nc(Br)cc12)Nc1ccc(F)cn1 [Example 61-A, 2-(2-bromo-5-oxo-8-(trifluoromethyl)pyrazolo[1,5-a]pyrido[3,2-e]pyrimidin-4(5H)-yl)-N-(5-fluoropyridin-2-yl)acetamide] showed an IC50 ([2]; 3A4-M, read-out: 3A4-M IC50) of over 100 µM, an IC50 ([2]; 3A4-T, read-out: 3A4-T IC50) of over 100 µM and an IC50 [3] of over 100 µM. For the same compound, the fraction unbound at 6 h, 5 μM [1] was 0.044.
